Values joined by “and” are separate entries in the source; they are usually repeats but may differ in a detail not shown here. Identical values can stand only once.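 All cell lines were grown in 96-well plates and treated with compound for 48 hours. GI50 marks 50% less growth. TGI marks complete inhibition of growth.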

Among the test systems are M14 melanoma; SK-MEL-28 melanoma; SW-620 colon; SF-539 CNS; COLO 205 colon; MDA-MB-231 breast; UACC-257 melanoma; RXF 393 renal; RPMI-8226 leukemia; LOX IMVI melanoma.
Common to all, as to test: NCI anticancer screen, dose series, 48 h

For the compound `COc1cc(Cn2c(SCC(=O)Nc3ccc(Cl)cc3)nc3ccccc3c2=O)cc(OC)c1OC`, the GI50 in the assay with M14 melanoma was 16.5 µM; with SK-MEL-28 melanoma, 11.4 µM; in the assay on SW-620 colon, 31.8 µM; in the assay with SF-539 CNS, 2.29 µM; with COLO 205 colon, 73.2 µM; in the assay with MDA-MB-231 breast, 3.08 µM. Moreover, the GI50 in the assay with UACC-257 melanoma was 6.04 µM; in the assay with RXF 393 renal, 2.59 µM; with RPMI-8226 leukemia, 22.9 µM; in the assay on LOX IMVI melanoma it was 13.5 µM. Moreover, the TGI is 86.4 µM in the assay with M14 melanoma; 50.9 µM with SK-MEL-28 melanoma; over 100 µM in the assay with SW-620 colon; 6.5 µM in the assay on SF-539 CNS; over 100 µM in the assay on COLO 205 colon; 13 µM in the assay with MDA-MB-231 breast. Further, the TGI in the assay with UACC-257 melanoma is 28 µM; in the assay on RXF 393 renal, 8.88 µM; in the assay with RPMI-8226 leukemia it was over 100 µM; with LOX IMVI melanoma, over 100 µM.
Regarding `COC(=O)[C@]12CC[C@@H](C)[C@H](C)[C@@H]1C1=CC[C@@H]3[C@@]4(C)CC(=O)[C@H](O)[C@@](C)(CO)[C@@H]4C(=O)C[C@@]3(C)[C@]1(C)CC2`, the GI50 in the assay with M14 melanoma was 11.9 µM; in the assay on SK-MEL-28 melanoma it was 14.6 µM; in the assay on SW-620 colon it was 15.1 µM; with SF-539 CNS, 16.2 µM; with COLO 205 colon it was 14.3 µM; with MDA-MB-231 breast it was 13.6 µM. The GI50 with UACC-257 melanoma is 16.8 µM; in the assay on RXF 393 renal it was 13.8 µM; in the assay on RPMI-8226 leukemia, 0.53 µM; in the assay on LOX IMVI melanoma it was 12.2 µM. The TGI in the assay with M14 melanoma stood at 25.1 µM; in the assay with SK-MEL-28 melanoma, 31.9 µM; with SW-620 colon, 30.6 µM; in the assay on SF-539 CNS, 31.6 µM; in the assay with COLO 205 colon, 29.5 µM; with MDA-MB-231 breast it was 29.2 µM. The TGI in the assay with UACC-257 melanoma was 31.7 µM; in the assay with RXF 393 renal, 28.6 µM; in the assay on RPMI-8226 leukemia, 19.4 µM; in the assay on LOX IMVI melanoma, 25.8 µM.
For the compound `CC/C(=N/N=C(N)N)c1ccc(NC(=O)Nc2ccc(/C(CC)=N/N=C(N)N)cc2)cc1`, the GI50 with M14 melanoma was 10.4 µM; in the assay with SK-MEL-28 melanoma, 12.6 µM; in the assay with SW-620 colon it was 8.29 µM; in the assay on SF-539 CNS, 8.04 µM; with COLO 205 colon, 3.25 µM; with MDA-MB-231 breast, 6.88 µM. Moreover, the GI50 with UACC-257 melanoma was 13.8 µM; with RXF 393 renal it was 7.81 µM; in the assay on RPMI-8226 leukemia, 1.62 µM; with LOX IMVI melanoma it was 9.41 µM. Moreover, the TGI worked out at 37.4 µM with M14 melanoma; 46.9 µM in the assay with SK-MEL-28 melanoma; 55.6 µM in the assay on SW-620 colon; 35.9 µM with SF-539 CNS; 21.2 µM with COLO 205 colon; 28.1 µM with MDA-MB-231 breast. For the same compound, the TGI was 42 µM in the assay with UACC-257 melanoma, 33.2 µM with RXF 393 renal, 8.85 µM with RPMI-8226 leukemia and 35 µM in the assay with LOX IMVI melanoma.
Consider `O=C1NC(=N[C@H](CO)c2ccccc2)S/C1=C\c1ccc2ncccc2c1`, for which the GI50 in the assay on M14 melanoma was 7.46 µM; in the assay on SK-MEL-28 melanoma, 7.96 µM; in the assay with SW-620 colon, 4.02 µM; in the assay on SF-539 CNS, 2.66 µM; in the assay with COLO 205 colon, 3.54 µM; with MDA-MB-231 breast, 7.71 µM. In addition, the GI50 in the assay on UACC-257 melanoma was 6.39 µM; in the assay with RXF 393 renal, 4.04 µM; in the assay with RPMI-8226 leukemia, 3.73 µM; in the assay on LOX IMVI melanoma, 2.41 µM. The TGI was over 25 µM with M14 melanoma; over 25 µM in the assay on SK-MEL-28 melanoma; over 20.5 µM in the assay on SW-620 colon; 7.67 µM with SF-539 CNS; over 25 µM with COLO 205 colon; over 25 µM in the assay with MDA-MB-231 breast. Further, the TGI is 19.2 µM in the assay with UACC-257 melanoma, 18.1 µM in the assay on RXF 393 renal, 10.9 µM in the assay on RPMI-8226 leukemia and 22 µM in the assay with LOX IMVI melanoma.
For the compound `COC1=CC2CCN3Cc4cc5c(cc4C(C1O)C23)OCC5` (stereo not given), the GI50 in the assay with M14 melanoma was 3 µM; in the assay on SK-MEL-28 melanoma it was 3.46 µM; with SW-620 colon it was 5.21 µM; with SF-539 CNS it was 3.95 µM; in the assay with COLO 205 colon it was 0.513 µM; in the assay with MDA-MB-231 breast, 2.86 µM. Besides, the GI50 was 2.09 µM in the assay with UACC-257 melanoma, 2.74 µM in the assay with RXF 393 renal, 15 µM in the assay with RPMI-8226 leukemia and 0.587 µM with LOX IMVI melanoma. Further, the TGI in the assay on M14 melanoma is 19.3 µM; in the assay on SK-MEL-28 melanoma, over 24.2 µM; with SW-620 colon, over 100 µM; with SF-539 CNS it was 21.3 µM; with COLO 205 colon, 1.92 µM; in the assay on MDA-MB-231 breast it was 22.6 µM. Moreover, the TGI in the assay with UACC-257 melanoma is 34.6 µM; in the assay on RXF 393 renal, 16.7 µM; in the assay with RPMI-8226 leukemia, over 29.1 µM; in the assay on LOX IMVI melanoma it was 3.18 µM.
With `CC[C@@]1(O)C(=O)NCc2c1cc1n(c2=O)Cc2cc3c(NC(C)=O)cccc3nc2-1`, the GI50 in the assay with M14 melanoma was over 100 µM; in the assay with SK-MEL-28 melanoma, over 100 µM; in the assay with SW-620 colon it was over 86.6 µM; with SF-539 CNS, over 100 µM; in the assay with COLO 205 colon it was over 100 µM; in the assay on MDA-MB-231 breast, over 100 µM. Also, the GI50 with UACC-257 melanoma is over 100 µM; in the assay on RXF 393 renal it was over 100 µM; in the assay on RPMI-8226 leukemia, over 30.3 µM; with LOX IMVI melanoma, over 100 µM. In addition, the TGI in the assay on M14 melanoma, in the assay with SK-MEL-28 melanoma, in the assay on SW-620 colon, with SF-539 CNS, in the assay with COLO 205 colon and in the assay with MDA-MB-231 breast was over 100 µM throughout. In addition, the TGI with UACC-257 melanoma, in the assay with RXF 393 renal, with RPMI-8226 leukemia and with LOX IMVI melanoma was over 100 µM in each case.
Regarding `COC(=O)c1ccc2c(C(=Nc3ccc(N(C)C(=O)CN4CCN(C)CC4)cc3)c3ccccc3)c(O)[nH]c2c1`, the GI50 with M14 melanoma is 1.75 µM and 1.98 µM; in the assay with SK-MEL-28 melanoma it was 1.77 µM and 1.96 µM; with SW-620 colon, 1.87 µM; with SF-539 CNS, 0.597 µM and 1.4 µM; with COLO 205 colon it was 4.32 µM and 4.41 µM; with MDA-MB-231 breast, 1.91 µM and 2.5 µM. Also, the GI50 with UACC-257 melanoma is 1.83 µM and 1.54 µM; in the assay on RXF 393 renal, 0.683 µM and 0.572 µM; in the assay on RPMI-8226 leukemia, 2.73 µM and 5.97 µM; in the assay on LOX IMVI melanoma, 1.24 µM and 1.28 µM. Also, the TGI in the assay with M14 melanoma is 3.56 µM and 3.98 µM; with SK-MEL-28 melanoma it was 3.35 µM and 3.5 µM; in the assay on SW-620 colon it was 4.14 µM; with SF-539 CNS, 2.26 µM and 5.9 µM; in the assay on COLO 205 colon, 46.4 µM; in the assay with MDA-MB-231 breast, 4.11 µM and 6.96 µM. Further, the TGI is 4.48 µM and 3.1 µM in the assay on UACC-257 melanoma; 2.47 µM and 2.9 µM in the assay with RXF 393 renal; 9.86 µM and 20.8 µM with RPMI-8226 leukemia; 3.09 µM and 2.75 µM in the assay on LOX IMVI melanoma.

Values taken from PubChem BioAssay (NCI).
